In the supplement of paper PMC10721915:
± gives the standard deviation of the averaged measurements.

Compound: COc1ccc([C@@H](O)c2cc(-c3ncnc4cc(N5CCOCC5)ccc34)c(F)cc2Cl)nn1 [peposertib]
Assay: relative cell growth vs untreated control (GI, NCI-DTP normalisation with time-zero) (fraction of control growth); higher = more growth / less inhibition
Conditions: treatment time: 120 h
Method: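 Cancer cell lines were treated with peposertib (DNA-PK inhibitor) combined with gamma ionizing radiation (0, 2, 3 or 6 Gy) for 120 h, starting 48 h after seeding. Read-out was sulforhodamine B total-protein staining, normalised to untreated control and time-zero wells (NCI-DTP GI convention).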

[1] = peposertib concentration 0.00488 µM, gamma irradiation dose (Gy): 0
[2] = peposertib concentration 0.00488 µM, gamma irradiation dose (Gy): 3
[3] = peposertib concentration 0.0195 µM, gamma irradiation dose (Gy): 0
[4] = peposertib concentration 0.0195 µM, gamma irradiation dose (Gy): 3
[5] = peposertib concentration 0.0781 µM, gamma irradiation dose (Gy): 0
[6] = peposertib concentration 0.0781 µM, gamma irradiation dose (Gy): 3
[7] = peposertib concentration 0.313 µM, gamma irradiation dose (Gy): 0
[8] = peposertib concentration 0.313 µM, gamma irradiation dose (Gy): 3
[9] = peposertib concentration 1.25 µM, gamma irradiation dose (Gy): 0
[10] = peposertib concentration 1.25 µM, gamma irradiation dose (Gy): 3
[11] = peposertib concentration 5 µM, gamma irradiation dose (Gy): 0
[12] = peposertib concentration 5 µM, gamma irradiation dose (Gy): 3

Row | Test System | relative cell growth [1] | relative cell growth [2] | relative cell growth [3] | relative cell growth [4] | relative cell growth [5] | relative cell growth [6] | relative cell growth [7] | relative cell growth [8] | relative cell growth [9] | relative cell growth [10] | relative cell growth [11] | relative cell growth [12]
1 | HCT15 | 0.998 ± 0.048 | 0.555 | 0.896 ± 0.056 | 0.482 | 1.002 ± 0.0063 | 0.298 | 0.964 ± 0.028 | 0.147 | 0.792 ± 0.062 | 0.0634 | 0.301 ± 0.074 | 0.0278
2 | SKLMS1 | 0.903 | – | 0.977 | – | 0.896 | – | 0.593 | – | 0.435 | – | 0.169 | –
3 | J82 | 1.02 | – | 1.03 | – | 0.991 | – | 0.876 | – | 0.64 | – | 0.377 | –
4 | SKBR3 | 0.938 | – | 1.03 | – | 1.03 | – | 0.89 | – | 0.523 | – | 0.0447 | –
5 | EFO21 | 1.05 | – | 1.04 | – | 0.909 | – | 0.667 | – | 0.352 | – | 0.141 | –
6 | ASPC1 | 1.1 | – | 0.966 | – | 1 | – | 0.891 | – | 0.67 | – | 0.22 | –
7 | RDES | 0.935 | – | 0.961 | – | 0.971 | – | 0.785 | – | 0.57 | – | 0.24 | –
8 | SKMEL28 | 1 | – | 1.02 | – | 0.902 | – | 0.746 | – | 0.648 | – | 0.477 | –
9 | SUDHL10 | 1.01 | – | 1.01 | – | 1.02 | – | 1.12 | – | 1.12 | – | 0.345 | –
10 | A204 | 1.06 | – | 1.01 | – | 0.892 | – | 0.616 | – | 0.298 | – | 0.0711 | –
11 | IGROV1 | 1.02 | – | 1.02 | – | 0.965 | – | 0.789 | – | 0.22 | – | -0.0182 | –
12 | L363 | 0.996 | – | 1 | – | 0.98 | – | 0.813 | – | 0.39 | – | 0.0471 | –
13 | NCIH460 | 1.05 ± 0.025 | 0.302 | 1.04 ± 0.02 | 0.384 | 1.02 ± 0.025 | 0.181 | 0.934 ± 0.16 | 0.0919 | 0.661 ± 0.37 | 0.044 | 0.177 ± 0.11 | 0.0283
14 | MDAMB468 | 1.04 | – | 0.969 | – | 0.942 | – | 0.794 | – | 0.556 | – | 0.222 | –
15 | PC3 | 1.04 | – | 1 | – | 0.971 | – | 0.781 | – | 0.532 | – | 0.262 | –
16 | HEPG2 | 0.956 | – | 0.977 | – | 0.977 | – | 0.91 | – | 0.603 | – | 0.211 | –
17 | SF295 | 1.03 | – | 1.01 | – | 0.992 | – | 0.945 | – | 0.54 | – | 0.209 | –
18 | KASUMI1 | 0.984 | – | 0.968 | – | 0.859 | – | 0.577 | – | 0.181 | – | -0.0751 | –
19 | RAMOS | 1.06 | – | 0.987 | – | 0.927 | – | 0.736 | – | 0.377 | – | 0.129 | –
20 | CACO2 | 0.994 ± 0.066 | 0.722 | 0.959 ± 0.018 | 0.713 | 0.92 ± 0.033 | 0.595 | 0.85 ± 0.0095 | 0.322 | 0.644 ± 0.03 | 0.195 | 0.238 ± 0.01 | 0.098
21 | HL60 | 0.998 | – | 0.975 | – | 0.929 | – | 0.808 | – | 0.526 | – | 0.238 | –
22 | SF268 | 1.01 | – | 0.994 | – | 0.943 | – | 0.867 | – | 0.747 | – | 0.516 | –
23 | BXPC3 | 0.935 | – | 0.946 | – | 0.903 | – | 0.789 | – | 0.437 | – | 0.137 | –
24 | NCIH358M | 1.004 ± 0.01 | 0.299 | 0.975 ± 0.03 | 0.27 | 0.963 ± 0.03 | 0.182 | 0.869 ± 0.1 | 0.181 | 0.695 ± 0.16 | 0.108 | 0.345 ± 0.078 | 0.0702
25 | HT1080 | 1.08 | – | 1.09 | – | 1.08 | – | 1.11 | – | 1.11 | – | 1 | –
26 | TE671 | 0.999 | – | 0.999 | – | 0.989 | – | 0.929 | – | 0.736 | – | 0.243 | –
